# Results published in US6982142B2, “Methods for screening therapeutically effective agents” (John Wayne Cancer Institute, priority 1997, dated 2006).
# Counter-ions that a name gives are not always drawn.
# How the values were obtained:
# MCF-7-AdrR cells [1] = test: cells; conditions: Homo sapiens, 72 h, read-out: growth inhibition
# MCF-7 cells [2] = test: Analysis of ceramide and glucosylceramide ([3H]palmitic acid, TLC) in parental cells; assay type: cell-based, human; conditions: adriamycin
# Method: (§1) Analysis of Ceramide and Glucosylceramide. Analyses were performed as previously described (Lavie, 1997). Cellular lipids were radiolabeled by incubating cells with [^3H]palmitic acid (2.5 μCi/ml culture medium) for 24 hr. After removal of medium, cells were rinsed twice with PBS (pH 7.4), and lipids were extracted (Lavie, 1997). After nitrogen evaporation of solvents, total lipids were resuspended in 100 μl of chloroform /methanol (1:1, v/v), and aliquots were applied to TLC plates. Ceramide was resolved using solvent system I, which contained chloroform/acetic acid (90:10, v/v). […] Commercial lipid standards were co-chromatographed. After development, lipids were visualized by iodine vapor staining, and areas of interest were scraped into 0.5 ml water. EcoLume counting fluid (4.5 ml) was added, the samples were mixed, and radioactivity was quantitated by liquid scintillation spectrometry.
# (§2) To further define the mechanism of drug resistance in MCF-7/GCS cells, cells were challenged with adriamycin and the metabolism of ceramide was evaluated (FIGS. 16A-16B). […] After 24 and 48 hr with adriamycin, GC levels in the GCS-transfected cells increased 1.4- and 2.1-fold, respectively.
# MCF-7 wild-type cells [3] = test: Ceramide and sphingomyelin formation ([3H]palmitic acid, TLC) in wild-type breast cancer cells; assay type: cell-based, human; conditions: doxorubicin 1.7 μM
# Method: (§3) The effect of anthracyclines such as doxorubicin on ceramide formation is illustrated in FIG. 10A. Cells were seeded in 6-well plates (80,000 cells/well) in 2.0 ml medium containing 5% FBS. After 2 days of growth, cells were given doxorubicin (1.7 μM) and [^3H]palmitic acid (2.0 μCi/well) for 72 hr. Total cell lipids were extracted (Bligh and Dyer, 1959) and analyzed by applying 150,000 cpm (for ceramide analysis) and 50,000 cpm (for sphingomyelin analysis) from each sample to the origin of a Silica Gel G TLC plate and resolving [^3H]ceramide and [^3H]sphingomyelin as described in the Methods section. […] FIG. 10A illustrates that exposure of wild-type human breast cancer cells to doxorubicin (1.7 μM) caused, after 72 hours, a 6-fold increase in ceramide. […] Control and doxorubicin treated (1.7 μM) cells were grown in 10 cm culture dishes for 72 hr. Cells were harvested by trypsin-EDTA, centrifuged then incubated with digestion buffer (100 mM NaCl, 25 mM EDTA, 10 mM Tris-HCI, 0.5% SDS, 0.3 mg/ml Proteinase K, pH 8.0) at 45° C. for 18 hrs. DNA was extracted with phenol/chloroform/isoamyl alcohol (25:24:1, v/v/v) and precipitated in 1/3 volume 7.5 M ammonium acetate and 2 volume2 100% ethanol at −20° C. overnight. […] Re-extracted DNA (15 μg) was analyzed by electrophoresis on a 2% agarose gel in TAE buffer (40 mM Tris-acetate, 1.0 mM EDTA, pH 8.3). […]
# MCF-7/GCS cells = test: Analysis of ceramide and glucosylceramide ([3H]palmitic acid, TLC) in GCS-transfected cells; assay type: cell-based, human; conditions: adriamycin
# Method: as §1, §2
# MCF-7 wild-type cells [4] = test: Apoptosis by oligonucleosomal DNA fragmentation (gel electrophoresis) in wild-type cells; assay type: cell-based, human; conditions: doxorubicin 1.7 μM, 72 hr
# Method: as §3
# MCF-7-AdrR cells [5] = test: Cell radiolabeling and TLC/LSC analysis of ceramide, glucosylceramide and sphingomyelin in MDR breast cancer cells; assay type: cell-based, human; conditions: for ceramide level, increase over control: adriamycin 2.5, PSC 833 5.0 μM, tamoxifen 5.0 μM alone or combined, 24 h, [3H]palmitic acid
# Method: (§4) Cells. Experiments were conducted using the human MDR breast cancer cell line, MCF-7 AdrR (adriamycin resistant) provided by Drs. Kenneth H. Cowan and Merrill E. Goldsmith, National Cancer Institute. Cells were grown in RPMI-1640 medium containing 10% FBS (fetal bovine serum) and antibiotics as previously described (Lavie, 1997) and cultures were maintained in a humidified 6.5% CO2 atmosphere incubator. Trypsin (0.05%) and EDTA (0.5 mM) were used for subculture. Plastic tissue cultureware, was from Costar (96-well plates) and Corning (6-well plates, 6-cm dishes, T-75 flasks). Limited experiments were conducted using the human MDR epidermoid carcinoma cell line, KBV-1, provided by Dr. Michael M. Gottesman, National Cancer Institute. Cells were maintained as described (Lavie, 1996). Vinblastine was eliminated from the culture medium during the experiments.
# Cell Radiolabeling and Lipid/Glycolipid Analysis. To follow lipid metabolism, cells were grown in the presence of tritiated ceramide precursors, L-[^3H]serine (20 Ci/mmol) (American Radiolabeled Chemicals, Inc., St. Louis), and [9, 10-^3H]palmitic acid (50 Ci/mmol) (DuPont NEN). Labeling media were prepared by adding microliter amounts of tritiated compounds (supplied in ethanol or sterile water) to medium containing only 5% FBS. After radiolabeling, 0.1 ml aliquots of medium were removed and analyzed by LSC (Lavie, 1997), in order to determine cellular uptake of the tritiated compounds. Cell monolayers were then rinsed twice with cold phosphate-buffered saline. Ice cold methanol containing 2% acetic acid was added, and cells were scraped free of the substratum (plastic scraper) for lipid extraction using chloroform and water in 1-dram glass vials as described (Lavie, 1997; Lavie, 1996; Bligh and Dyer, 1959). After centrifugation, the resulting organic lower phase of the biphasic extraction was withdrawn, transferred to a glass vial, and evaporated to dryness under a stream of nitrogen.
# Radioactivity in glucosylceramide was analyzed by TLC resolution of total lipids (Silica Gel G) using a solvent system containing chloroform/methanol/ammonium hydroxide (80:20:2, v/v/v). Migration of glucosylceramide on TLC was compared with that of commercial standard (glucocerebrosides, Gaucher's spleen, Matreya, Inc., Pleasant Gap, Pa.), and lipid spots, after iodine vapor visualization, were scraped for tritium quantitation by LSC (Lavie, 1997; Lavie, 1996). […] Ceramide and sphingomyelin commercial standards (brain-derived) were from Avanti Polar Lipids, Alabaster, Ala. After iodine visualization of lipids, areas of the chromatogram corresponding to ceramide and sphingomyelin were scraped into minivials containing 0.5 ml water followed by 4.5 ml EcoLume (ICN, Costa Mesa, Calif.), and samples were analyzed for tritium by liquid scintillation spectrometry. Alternative analysis of ceramide consisted of subjecting an aliquot of the total cell lipid extract to mild alkaline hydrolysis (0.1 N KOH in methanol, 1 h at 37° C.) followed by re-extraction (Lavie, 1997). […] The same can also be done without tritium by simply applying 100-200 μg total cell lipid to TLC plates and developing them in the appropriate solvent, then spraying them with 30% H2SO4, charring the plate in an oven at 180° C. for 20 min, and measuring lipid mass by densitometry.
# MCF-7 cells [6] = test: cells; assay type: cell-based; conditions: Homo sapiens, MCF7, 96 h, read-out: EC50 (cytotoxicity)
# Method: Cytotoxicity Assay. The assay was performed as previously described (Lavie, 1997). […] Cultures were incubated at 37° C. for 24 hr before addition of drug. Drugs were added in FBS-free medium (0.1 ml), and cells were cultured at 37° C. for the indicated periods. Drug cytotoxicity was determined using the Promega 96 Aqueous cell proliferation assay kit. Absorbance at 490 nm was recorded using an ELISA reader (Molecular Devices, San Diego, Calif.).
# Adriamycin was used to assess the influence of GCS transfection on cellular response to anthracyclines. After pretreatment with doxycycline for two days, MCF-7/GCS cells were incubated with increasing concentrations of adriamycin for four days. […] It was observed that MCF-7/GCS cells were resistant to ceramide toxicity as well. […] However, the EC50 in the TC group was nearly identical with that of MCF-7 cells, there being no statistical difference between the two groups (FIG. 14C).
# MCF-7-AdrR cells [7] = system: MCF-7-AdrR cells
# MCF-7-wt cells = test: Cytotoxicity assay (Promega) in chemosensitive wild-type breast cancer cells; assay type: cell-based, human; conditions: PSC 833 10 μM, four days
# KB-V-1 cells [8] = test: Cytotoxicity in vinblastine resistant epidermoid carcinoma cells (estimated, not measured); assay type: cell-based, human; conditions: PSC 833 5.0 μM, 24 h
# Method: To determine whether the influence of PSC 833 on ceramide metabolism was restricted to certain cell types, a vinblastine resistant epidermoid carcinoma, KB-V-1, was tested. In KB-V-1 cells exposed to 5.0 μM PSC 833 for 24 h, cellular levels of tritiated ceramide ([^3H]palmitic acid labeling) increased 8.7-fold over untreated cells. This is 4-fold higher than the ceramide increase elicited by PSC 833 in MCF-7-AdrR cells (FIG. 7). The increase in ceramide in KB-V-1 cells was accompanied by cytotoxicity, which while not measured was estimated at 80% cell death. Additionally, the PSC 833-induced increase in [^3H]ceramide was not accompanied by decreases in [^3H]sphingomyelin, but rather a slight increase in radiolabeled sphingomyelin (33% over the control).
# KB-V-1 cells [9] = test: Ceramide and sphingomyelin metabolism ([3H]palmitic acid labeling) in vinblastine resistant epidermoid carcinoma cells; assay type: cell-based, human; conditions: PSC 833 5.0 μM
# Method: as §4
# Cell Radiolabeling and Lipid/Glycolipid Analysis. To follow lipid metabolism, cells were grown in the presence of tritiated ceramide precursors, L-[^3H]serine (20 Ci/mmol) (American Radiolabeled Chemicals, Inc., St. Louis), and [9, 10-^3H]palmitic acid (50 Ci/mmol) (DuPont NEN). […] After radiolabeling, 0.1 ml aliquots of medium were removed and analyzed by LSC (Lavie, 1997), in order to determine cellular uptake of the tritiated compounds. […]
# Radioactivity in glucosylceramide was analyzed by TLC resolution of total lipids (Silica Gel G) using a solvent system containing chloroform/methanol/ammonium hydroxide (80:20:2, v/v/v). Migration of glucosylceramide on TLC was compared with that of commercial standard (glucocerebrosides, Gaucher's spleen, Matreya, Inc., Pleasant Gap, Pa.), and lipid spots, after iodine vapor visualization, were scraped for tritium quantitation by LSC (Lavie, 1997; Lavie, 1996). […] After iodine visualization of lipids, areas of the chromatogram corresponding to ceramide and sphingomyelin were scraped into minivials containing 0.5 ml water followed by 4.5 ml EcoLume (ICN, Costa Mesa, Calif.), and samples were analyzed for tritium by liquid scintillation spectrometry. […]
# [10] = increasing concentration, 60 min then [3H]palmitic acid for 23 h
smiles,measurement,setting,value
"COc1cccc2c1C(=O)c1c(O)c3c(c(O)c1C2=O)C[C@@](O)(C(=O)CO)C[C@@H]3O[C@H]1C[C@H](N)[C@H](O)[C@H](C)O1 [adriamycin, doxorubicin hydrochloride]",inhibition at 2.5 µM,MCF-7-AdrR cells [1],23%
same,GC levels,MCF-7 cells [2]; 24 and 48 hr,little impact
same,ceramide level increase,MCF-7 cells [2]; 24 hr,3.4 fold
same,ceramide level increase,MCF-7 cells [2]; 48 hr,3 fold
same,ceramide increase,MCF-7 wild-type cells [3]; 72 hours,6 fold
same,sphingomyelin production,MCF-7 wild-type cells [3]; 72 hr,increased only slightly
same,GC level increase,MCF-7/GCS cells; 24 hr,1.4 fold
same,ceramide level increase,MCF-7/GCS cells; 24 hr,1.4 fold
same,GC level increase,MCF-7/GCS cells; 48 hr,2.1 fold
same,ceramide level increase,MCF-7/GCS cells; 48 hr,1.2 fold
same,apoptosis (DNA laddering),MCF-7 wild-type cells [4],gave rise to apoptosis
same,"ceramide level, increase over control",MCF-7-AdrR cells [5],not influenced
same,EC50,MCF-7 cells [6],370 ± 10 nM
same,cell survival,"MCF-7-AdrR cells [7]; adriamycin 0.2 μM alone, 5-days",90%
same,"cell survival, % of control","MCF-7-AdrR cells [7]; adriamycin 0.1-1.0 μM, 5-days",80-95 % of control
"C/C=C/C[C@@H](C)C(=O)[C@H]1C(=O)N[C@@H](C(C)C)C(=O)N(C)CC(=O)N(C)[C@@H](CC(C)C)C(=O)N[C@@H](C(C)C)C(=O)N(C)[C@@H](CC(C)C)C(=O)N[C@@H](C)C(=O)N[C@H](C)C(=O)N(C)[C@@H](CC(C)C)C(=O)N(C)[C@@H](CC(C)C)C(=O)N(C)[C@@H](C(C)C)C(=O)N1C [PSC 833, ([3′-Keto-Bmt1]-Val2)-cyclosporine]",reduction in cell survival,MCF-7-wt cells,80%
same,"cell death (not measured, estimated)",KB-V-1 cells [8],~80%
same,concentration at which activation of glucosylceramide formation was apparent,MCF-7-AdrR cells [5]; 60 min then [3H]palmitic acid for 23 h,0.1 µM
same,glucosylceramide level (TLC autoradiography),"MCF-7-AdrR cells [5]; PSC 833 2.5 μM, overnight, [3H]serine",increased markedly
same,"sphingomyelin, % of control","MCF-7-AdrR cells [5]; PSC 833 5.0 μM, 2 h",150 % of control
same,time at which activation of cellular ceramide formation was discernible,"MCF-7-AdrR cells [5]; PSC 833 5.0 μM, exposure 15 min-4 h",30 min
same,"ceramide level, increase over control",MCF-7-AdrR cells [5],4.8 fold
same,"cellular ceramide formation, dose-response",MCF-7-AdrR cells [5]; [10],elicited an increase in cellular ceramide formation
same,"glucosylceramide formation, dose-response",MCF-7-AdrR cells [5]; [10],resulted in glucosylceramide synthesis
same,cell kill,"MCF-7-AdrR cells [7]; PSC 833 0.5 μM, 5-days",10%
same,reduction in cell survival,"MCF-7-AdrR cells [7]; PSC 833 10 μM, four days",35%
same,cell viability,"MCF-7-AdrR cells [7]; adriamycin 2.5 μM, PSC 833 5.0, tamoxifen 5.0 μM alone or combined, 3-days",without influence
same,ceramide increase in KB-V-1 relative to increase in MCF-7-AdrR cells,KB-V-1 cells [9],4 fold
same,"radiolabeled sphingomyelin, increase over the control",KB-V-1 cells [9]; 24 h,33%
same,"tritiated ceramide level, increase over untreated cells",KB-V-1 cells [9]; 24 h,8.7 fold
